Common to all, as to assay type: cell-based
Test [1] relates to pancreatic islets from wildtype mice. Kind of test: Insulin secretion in isolated pancreatic islets from wildtype mice. Conditions: 5.5 mM glucose; 5 μM D1; 37° C. for 60 min; WT islets; FIG. 11C. As for the experimental part:
As used or herein, pancreatic islets from wildtype and UCP2 knockout mice were isolated according to a method used for rats (Cawthorn and Chan, Mol. Cell. Endocrinol. 1991, 75:197-204, the entire teachings of which are incorporated herein by reference), except that the total exposure to type XI collagenase (Worthington Biochemical Co., NJ) was 30 min. and the Ficoll gradient was altered to layers of 25%, 23%, 21%, and 11%. Islets were harvested from the 11%-21% interface.
Islets were cultured in RPMI medium containing 11.0 mM glucose and supplemented with 1% penicillin-streptomycin. 7.5% fetal bovine serum (all from Gibco/BRL, Burlington, ON), and 10 mM Hepes (Sigma). After culturing for 20-24 hr, the islets were transferred to microcentrifuge tubes, pelleted (800 g for 5 min), and the medium aspirated and replaced with 1.0 mL DME medium containing 1% gelatin and 5.5 mM glucose with no genipin (control), 50 nM genipin, 0.5 μM genipin, and 5 μM genipin. For insulin secretion studies, the three islets were incubated per tube. After incubation at 37° C. for 60 min., the islets were centrifuged. The supernatant was collected and stored at −80° C., and then later assayed for insulin using Rat Insulin ELISA Kit (Cat. No. INSKR020, Crystal Chem., Inc., Chicago, Ill.).
FIGS. 11B and 11C show their effects on insulin secretion. Pancreatic islets were isolated from WT or UCP2 knockout (KO) mice. […]

The test system of a further test is isolated thymocytes. The experiment in a line: Proton leak in isolated thymocytes. From the text: (§1) It has been shown that addition of high levels of superoxide to isolated mitochondrial stimulates proton leak if UCP1, UCP2 or UCP3 (collectively “UCPs”) are present.
Test [2] relates to thymocytes that are deficient in UCP2. The experiment in a line: Proton leak in thymocytes deficient in UCP2.
Excerpt: as §1

The subject of the next test is isolated islets. Kind of test: ATP levels and insulin secretion in isolated islets.
Excerpt: as §1

The subject of a further test is UCP2 deficient islets. Kind of test: ATP levels and insulin secretion in UCP2 deficient islets.
Excerpt: as §1

With `COC(=O)C1=CO[C@@H]2OC[C@@]3(O)[C@@H]2[C@@H]1C[C@H]3Cl` [compound 55], the insulin secretion result in test [1] was “increases insulin secretion in WT islets”.

Regarding `O=C(O)c1ccc(/C2=C3\C=CC(=N3)/C(c3ccc(C(=O)O)cc3)=c3/cc/c4[n]3[Mn]([Cl])[n]3c2ccc3/C(c2ccc(C(=O)O)cc2)=C2/C=CC(=N2)\C=4c2ccc(C(=O)O)cc2)cc1` [MnTBAP], the proton leak entry in the test on isolated thymocytes is “decreases proton leak”. In test [2], the proton leak result is given as “not present”. Further, in the test on isolated islets, the ATP levels result is given as “increased ATP levels” and the insulin secretion result is given as “increased insulin secretion”. Moreover, in the test with UCP2 deficient islets, the “ATP levels and insulin secretion” value is listed as “absent”.

The record behind these values is patent US8093288B2, “Genipin derivatives and uses thereof” (Beth Israel Deaconess Medical Center, priority 2003, dated 2012).
